Source: patent publication US20030129629A1, “Methods and compositions for the identification, assessment, prevention, and therapy of human cancers” (Millennium Pharmaceuticals, Inc., priority 2000, published 2003)

Tested on: 60 cancer cell lines (NCI 60 cancer cell line series)
Assay: NCI-DTP in vitro cancer screen, sulforhodamine B (SRB) growth inhibition, 48 hour exposure
Type: cell-based, human
Description: Cancer Cell Line Preparation. Sixty cancer cell lines were obtained from the National Cancer Institute Developmental Therapeutics Program (NCI-DTP). Procedures for growing cells and testing compounds have been described previously (Scudiero et al., Cancer Res. 1988, 48:4827-4833; Stinson et al., Anticancer Res.; Myers et al., Electrophoresis 1997, 18:647-653). Cells are plated on day 0 at a density individualized for each cell line so that they will generally be sub-confluent at the end of the assay period. On day 1, a compound is added in the format for a duplicate-well, 5-dose, ten-fold interval dose response study.
No-drug, no-cell and no-growth controls are included. On day 3 the cells are processed for staining with sulforhodamine B (SRB), which reflects the amount of cell mass present at the end of a 48 hour exposure to the test agent. From dose response curves based on the SRB data, various parameters can be determined. […] More precisely, the quantity used in the calculation to be described is the potency measure −log{GI50}.
Activity database (A). […] This subset of compounds was selected from the larger 23,000 compound database available from the DTP. The compounds were selected on the basis of their known mechanism of action and chemical structure. The average potency −log{GI50} was extracted from the comma-delimited text files available through the Web at http://www.nci.nih.gov/intra/lmp/jnwbio.html. Subsequently, these −log{GI50} values were inspected manually and classified as indicating either Low, Medium or High sensitivity to each compound.

CS(=O)(=O)OCCCCOS(C)(=O)=O [Busulfan]
classification of cell line as Low(1), Medium(2), High(3) sensitivity to compound (Breast BT-549 CL5013): 1
classification of cell line as Low(1), Medium(2), High(3) sensitivity to compound (Breast HS-578T CL5006): 1
classification of cell line as Low(1), Medium(2), High(3) sensitivity to compound (Breast MCF7(I) CL5001): 2
classification of cell line as Low(1), Medium(2), High(3) sensitivity to compound (Breast MCF7/ADRr CL5002): 2
classification of cell line as Low(1), Medium(2), High(3) sensitivity to compound (Breast MDA-MB-231 CL5005): 1
classification of cell line as Low(1), Medium(2), High(3) sensitivity to compound (Breast MDA-MB-435 CL5011): 1
classification of cell line as Low(1), Medium(2), High(3) sensitivity to compound (Breast MDA-N CL5012): 2
classification of cell line as Low(1), Medium(2), High(3) sensitivity to compound (Breast T-47D CL5014): 1
classification of cell line as Low(1), Medium(2), High(3) sensitivity to compound (CNS SF-268 CL12014): 2
classification of cell line as Low(1), Medium(2), High(3) sensitivity to compound (CNS SF-295 CL12015): 2
classification of cell line as Low(1), Medium(2), High(3) sensitivity to compound (CNS SF-539 CL12016): 1
classification of cell line as Low(1), Medium(2), High(3) sensitivity to compound (CNS SNB-19 CL12002): 2
classification of cell line as Low(1), Medium(2), High(3) sensitivity to compound (CNS SNB-75(I) CL12005): 3
classification of cell line as Low(1), Medium(2), High(3) sensitivity to compound (CNS U251(I) CL12009): 1
classification of cell line as Low(1), Medium(2), High(3) sensitivity to compound (Colon COLO-250 CL4010): 2
classification of cell line as Low(1), Medium(2), High(3) sensitivity to compound (Colon HCC-2998 CL4002): 2
classification of cell line as Low(1), Medium(2), High(3) sensitivity to compound (Colon HCT-15 CL4015): 2
classification of cell line as Low(1), Medium(2), High(3) sensitivity to compound (Colon HCT-116 CL4003): 1
classification of cell line as Low(1), Medium(2), High(3) sensitivity to compound (Colon HT29(I) CL4001): 1
classification of cell line as Low(1), Medium(2), High(3) sensitivity to compound (Colon KM12 CL4017): 1
classification of cell line as Low(1), Medium(2), High(3) sensitivity to compound (Colon SW-620 CL4009): 2
classification of cell line as Low(1), Medium(2), High(3) sensitivity to compound (Leukemia CCRF-CEM(I) CL7003): 3
classification of cell line as Low(1), Medium(2), High(3) sensitivity to compound (Leukemia HL-60(I) CL7008): 3
classification of cell line as Low(1), Medium(2), High(3) sensitivity to compound (Leukemia K562(I) CL7005): 2
classification of cell line as Low(1), Medium(2), High(3) sensitivity to compound (Leukemia MOLT-4 CL7006): 3
classification of cell line as Low(1), Medium(2), High(3) sensitivity to compound (Leukemia RPMI-8226(I) CL7010): 1
classification of cell line as Low(1), Medium(2), High(3) sensitivity to compound (Leukemia SR CL7019): 3
classification of cell line as Low(1), Medium(2), High(3) sensitivity to compound (Melanoma LOX IMVI CL10001): 2
classification of cell line as Low(1), Medium(2), High(3) sensitivity to compound (Melanoma M14 CL10014): 1
classification of cell line as Low(1), Medium(2), High(3) sensitivity to compound (Melanoma MALME-3M CL10002): 1
classification of cell line as Low(1), Medium(2), High(3) sensitivity to compound (Melanoma SK-MEL-2 CL10005): 1
classification of cell line as Low(1), Medium(2), High(3) sensitivity to compound (Melanoma SK-MEL-5 CL10007): 2
classification of cell line as Low(1), Medium(2), High(3) sensitivity to compound (Melanoma SK-MEL-28 CL10008): 2
classification of cell line as Low(1), Medium(2), High(3) sensitivity to compound (Melanoma UACC-62 CL10020): 2
classification of cell line as Low(1), Medium(2), High(3) sensitivity to compound (Melanoma UACC-257 CL10021): 2
classification of cell line as Low(1), Medium(2), High(3) sensitivity to compound (NSCLC A549/ATCC CL1004): 2
classification of cell line as Low(1), Medium(2), High(3) sensitivity to compound (NSCLC EKVX CL1008): 2
classification of cell line as Low(1), Medium(2), High(3) sensitivity to compound (NSCLC HOP-62 CL1026): 2
classification of cell line as Low(1), Medium(2), High(3) sensitivity to compound (NSCLC HOP-92 CL1029): 2
sensitivity classification Low(1)/Medium(2)/High(3) (NSCLC NCI-H23(I) CL1001): 2
classification of cell line as Low(1), Medium(2), High(3) sensitivity to compound (NSCLC NCI-H226 CL1013): 2
sensitivity classification Low(1)/Medium(2)/High(3) (NSCLC NCI-H332M CL1017): 1
sensitivity classification Low(1)/Medium(2)/High(3) (NSCLC NCI-H460 CL1021): 3
sensitivity classification Low(1)/Medium(2)/High(3) (NSCLC NCI-H522 CL1003): 1
sensitivity classification Low(1)/Medium(2)/High(3) (Ovarian IGROV1 CL6010): 1
sensitivity classification Low(1)/Medium(2)/High(3) (Ovarian OVCAR-3 CL6001): 2
sensitivity classification Low(1)/Medium(2)/High(3) (Ovarian OVCAR-4 CL6002): 2
sensitivity classification Low(1)/Medium(2)/High(3) (Ovarian OVCAR-5 CL6003): 1
sensitivity classification Low(1)/Medium(2)/High(3) (Ovarian OVCAR-8 CL6005): 1
sensitivity classification Low(1)/Medium(2)/High(3) (Ovarian SK-OV-3 CL6011): 1
sensitivity classification Low(1)/Medium(2)/High(3) (Prostate DU-145 CL11003): 2
sensitivity classification Low(1)/Medium(2)/High(3) (Prostate PC-3(I) CL11001): 1
sensitivity classification Low(1)/Medium(2)/High(3) (Renal 786-0 CL9018): 2
sensitivity classification Low(1)/Medium(2)/High(3) (Renal A498 CL9013): 1
sensitivity classification Low(1)/Medium(2)/High(3) (Renal ACHN CL9023): 2
sensitivity classification Low(1)/Medium(2)/High(3) (Renal CAKI-1 CL9015): 3
sensitivity classification Low(1)/Medium(2)/High(3) (Renal RXF-393 CL9016): 3
sensitivity classification Low(1)/Medium(2)/High(3) (Renal SN12C CL9008): 2
sensitivity classification Low(1)/Medium(2)/High(3) (Renal TK10 CL9024): 1
sensitivity classification Low(1)/Medium(2)/High(3) (Renal UO-31 CL9004): 1
